# Values joined by “and” are separate entries in the source; they are usually repeats but may differ in a detail not shown here. Identical values can stand only once. “Also recorded” adds a separate entry of the source. Peptide text beside a SMILES is read from it. * marks the point of attachment. Cbz = O=C(OCc1ccccc1)*
# How the values were obtained:
# recombinant SIP1 (rSIP1) [1] = assay: In vitro binding assay, nickel-column pull-down; details: 10 µg rSIP1 with 10 µg His-IN, 2 h, 4°C, nickel agarose, anti-SIP1 Western blot
# IN-V5 = assay: Expression level of IN-V5 in 293T cells by Western blotting
# HIV-1 RT (GST-RTp66) = assay: In vitro RT assay, stimulation by IN and SIP1; type: biochemical
# Method: (§1) Figure 4 Augmentation of reverse transcription by HIV-1 IN and SIP1 in vitro. (A, B) The in vitro RT assay was carried out with 35 fmoles of HIV-1 RT (GST-RTp66) in the absence or presence of different amounts of full-length rIN (WT-IN). The truncated form of IN (IN1–70) that lack SIP1 binding domains was also tested in apparel as a control. The amount of HIV-1 cDNA was measured by real-time PCR using the HIV-1 R/U5 (A) or R/gag (B) primer pair. Significant augmentation (p<0.05) by WT-IN in the levels of HIV-1 cDNA compared with the level without IN (0 fmole) was indicated by asterisks. (C) The in vitro RT assay was carried out as described in (A) in either the absence or presence of […] of WT-IN, together with different amounts of rSIP1. (D) The in vitro RT assay was carried out with 3.5 fmoles of WT-IN (black bar) or IN1–70 (slash bar), in either the absence (−) or presence (+) of 50 fmoles of rSIP1. (E) The oligo(dT) cellulose resin was incubated with in vitro transcribed HIV-1 RNA for 1 h. After incubation, 10 µg of GST-RT in either the absence or presence of His-IN or rSIP1 was added and incubated for 2 h. After four washes with the IN storage buffer, precipitates were analyzed by immunoblot analysis using an anti-GST antibody.
# For preparation of the viral RNA template for in vitro transcription, the DNA sequences corresponding to HIV-1 lentiviral genomic RNA (pCS-CDF-CG-PRE) were subcloned into pGEM-T vector (pGEM-CS-CDF). Then, the annealed oligonucleotides of TCGA(A)30G and TCGA(T)30C were inserted into the pGEM-CS-CDF vector at the Sal-I site for addition of the poly(A) tail (the pGEM-CS-CDF-PolyA). Synthesized HIV RNA with the poly(A) 30 tail were produced by in vitro transcription using RiboMAX™ Large Scale RNA Production System-T7 (Promega) with Ribo m^7 G Cap analog (Promega) to mimic the capped structure of mRNA. Transcription products of HIV-1 RNA (4.9 kb) were purified with spin columns MicroSpin™ G-25 Columns (American Biosciences), followed by gel-filtration using NAP-5 columns, (American Biosciences) and were used in the in vitro RT assay. The reverse transcription reactions were carried out in a final volume of 20 µl RT reaction buffer consisting of 50 mM Tris-HCl (pH 8.3), 75 mM KCl, 3 mM MgCl2, 10 mM DTT, 1 mM dNTPs, 0.04∼0.4 fmoles of HIV-1 RNA templates and 0.4∼4 fmoles of RNA primer, 3.5∼35 fmol HIV-1 RT (GST-RTp66). The reaction was carried out at 42°C for 30 min in either the absence or presence of different amount of His-IN and recombinant SIP1. The amount of the cDNA product was measured by real-time PCR using primers for the R/U5 or R/gag region.
# Supplementary file pone.0007825.s004.pdf: Figure S4 Stoichiometry and order of IN and SIP1 for their stimulatory effect of cDNA synthesis. (A) The in vitro RT assay was carried out in the absence or presence of different amount of the His-IN (0.2 or 1 pmol) or recombinant SIP1 (0.2 or 1 pmol) as described in Figure 4. The amount of cDNA product was measured by real-time PCR using primers for HIV-1 R/U5 region. (B) The in vitro RT assay was carried out with 5 pmoles of His-IN in the absence or presence of different amount SIP1 (1 or 5 pmol). (C) The in vitro RT assay was carried out in the absence or presence of the His-IN and recombinant SIP1 with [α32P]dCTP and subjected to SDS-PAGE analysis in denatured condition. (D) In vitro RT assay was performed as described above, except that rIN with rRT and rSIP1 were pre-incubated on ice in different combinations and orders (inlet Table). Then, reaction was initiated by adding mixture containing the template RNA/PBS-primer and dNTPs. (0.10 MB PDF) Click here for additional data file.
# rSIP1 = assay: Dot-blot binding of peptide to SIP1; details: 40 or 400 nmol peptide on nitrocellulose, rSIP1 (5 µg), anti-SIP1 antibody
# [2] = molecular target: T1, IN-SIP1 mediated RT activity (Homo sapiens, UniProt O14893); assay: In vitro RT assay, inhibition of IN-SIP1 mediated RT activity by peptide; type: biochemical, HIV-1; details: 35 fmol RT, 3.5 fmol His-IN, 50 fmol rSIP1; for Effect on IN-SIP1 mediated RT activity: cDNA relative to control
# T1 construct: the SIP1 gene was amplified from pTRE-SIP1 (kindly provided by Dr. G. Dreyfuss) by PCR and cloned into BamHI and EcoRI sites of pGEX-6P-2; GST (N, cleaved yes); made in house; host or cells: E. coli BL21 (GST-SIP1), E. coli M15 (His-IN)
# T1 sequence (O14893 1-280): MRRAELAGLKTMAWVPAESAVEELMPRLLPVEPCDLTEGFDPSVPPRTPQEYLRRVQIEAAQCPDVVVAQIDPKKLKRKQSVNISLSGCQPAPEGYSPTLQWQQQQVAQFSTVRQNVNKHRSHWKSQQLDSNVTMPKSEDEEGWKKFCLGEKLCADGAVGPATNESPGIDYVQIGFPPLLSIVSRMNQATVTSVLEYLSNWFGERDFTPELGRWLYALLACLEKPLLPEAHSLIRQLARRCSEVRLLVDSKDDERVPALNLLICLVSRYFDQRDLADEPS
# [3] = test system: IN-SIP1 interaction (His-IN, rSIP1); assay: Dot-blot inhibition of IN-SIP1 interaction by peptide; type: binding, HIV-1
# [4] = test system: HIVNL43-luc/VSV-G pseudotypes; type: cell-based, HIV-1
# RT on viral RNA = assay: RT assembly on viral RNA; type: biochemical; details: HIV-1 RNA on oligo(dT) cellulose, 10 µg GST-RT, 2 h, immunoblot anti-GST (Figure 4E)
# Method: as §1
# Next, the effects of IN and SIP1 on the assembly of RT on viral RNA was examined. […] Levels of RT on viral RNA were determined by immunoblot assay. […]
# RT = assay: Direct binding to RT; parameters: species or system HIV-1; details: data not shown
# [5] = molecular target: full-length His-tagged HIV-1 integrase Y15A (HIV-1 (pNL4-3)); assay: not stated; data not shown; in vitro, recombinant IN-Y15A
# recombinant SIP1 (rSIP1) [6] = molecular target: recombinant SIP1 (rSIP1) (UniProt O14893)
# recombinant SIP1 (rSIP1) [7] = molecular target: recombinant SIP1 (rSIP1) (UniProt O14893); remark: listed apart in the source
# [8] = molecular target: wild type HIV-1 integrase with V5 epitope (IN-V5, WT-V5) (HIV-1 (pNL4-3)); assay: cross-linking
molecule,measurement,setting,value
1-60: His-tagged IN deletion form,Binding to rSIP1 in vitro,recombinant SIP1 (rSIP1) [1],did not bind to rSIP1
1-70: His-tagged IN deletion form,Binding to rSIP1 in vitro,recombinant SIP1 (rSIP1) [1],did not bind to rSIP1
1-80: His-tagged IN deletion form,Binding to rSIP1 in vitro,recombinant SIP1 (rSIP1) [1],significant binding to rSIP1
1-90: His-tagged IN deletion form,Binding to rSIP1 in vitro,recombinant SIP1 (rSIP1) [1],significant binding to rSIP1
1-100: His-tagged IN deletion form,Binding to rSIP1 in vitro,recombinant SIP1 (rSIP1) [1],significant binding to rSIP1
1-220: His-tagged IN deletion form,Binding to rSIP1 in vitro,recombinant SIP1 (rSIP1) [1],significantly restored binding of IN to rSIP1
1-230: His-tagged IN deletion form,Binding to rSIP1 in vitro,recombinant SIP1 (rSIP1) [1],significantly restored binding of IN to rSIP1
1-240: His-tagged IN deletion form,Binding to rSIP1 in vitro,recombinant SIP1 (rSIP1) [1],significantly reduced binding to rSIP1
1-250: His-tagged IN deletion form,Binding to rSIP1 in vitro,recombinant SIP1 (rSIP1) [1],significantly reduced binding to rSIP1
1-260: His-tagged IN deletion form,Binding to rSIP1 in vitro,recombinant SIP1 (rSIP1) [1],significantly reduced binding to rSIP1
"1-270: His-tagged IN, the 18 amino acids from the C-terminal deleted",Binding to rSIP1 in vitro,recombinant SIP1 (rSIP1) [1],efficient interaction with rSIP1 in vitro
CC(C)C[C@@H](C=O)NC(=O)[C@H](CC(C)C)NC(=O)[C@H](CC(C)C)NC(=O)OCc1ccccc1 [MG132] (Cbz-Leu-Leu-Leu-aldehyde),Effect of MG132 on level of WT-V5,IN-V5; 10 µM MG-132,not changed
same,Effect of MG132 on expression level of IN mutants,"IN-V5; 10 µM MG-132, Y15A-V5, K186Q-V5 and LL241,242AA-V5",restored the expression levels of the IN mutants
same,Effect of MG132 on level of IN-V5 in siSIP1-treated cells,IN-V5; siSIP1 treated,restored
IN1–70: truncated HIV-1 IN that lacks the central and C-terminal domains,Effect on level of cDNA products (R/U5),"HIV-1 RT (GST-RTp66); truncated IN, any dose, 35 fmoles RT, 42°C, 30 min, real-time PCR, P = 0.58∼0.98",no significant stimulatory effect at any dose
"IN154–174: control peptide, residues of 154–174, contains a motif critical for the interaction with LEDGF/p75 (MNKELKKIIGQVRDQAEHLKT; Integrase; UniProt P04585 1301-1321, looked up, fragment) [reference compound]",Direct binding of peptide to rSIP1,rSIP1,did not
same,Effect on IN-SIP1 mediated RT activity,[2],inhibitory effect was not evident
IN231–251: synthetic peptide corresponding to the residues of 231–251 of HIV-1 IN,Peptide concentration that reduces His-WT binding to SIP1 to non-specific background levels,"[3]; His-IN (10 µg) on nitrocellulose, 5 µg rSIP1",at least 50 µM
same,Interference with binding of full-length IN (His-WT) to SIP1,"[3]; His-IN (10 µg) on nitrocellulose, 5 µg rSIP1, peptide present",significantly interfered with the binding of the full-length IN (His-WT) to the SIP1 protein
same,Effect on IN-SIP1 interaction and its RT-stimulatory effects,[3]; summary statement,inhibit the IN-SIP1 interaction and its RT-stimulatory effects
same,Direct binding of peptide to rSIP1,rSIP1,efficiently bound to rSIP1
same,Effect on HIV-1 infectivity,[4],did not significantly reduce HIV-1 infectivity
same,"IC50, inhibition of IN-SIP1 mediated RT activity","[2]; 42°C, 30 min, 20 µl, real-time PCR",~1 nmoles per reaction
same,Effect on IN-SIP1 mediated RT activity,[2],significantly reduced the IN-SIP1 mediated RT activity in a dose-dependent manner
"SIP1: survival motor neuron-interacting protein 1, recombinant",Level of RT on viral RNA,RT on viral RNA,enhanced RT assembly on viral RNA
same,Direct binding to RT,RT,cannot bind to RT directly
same,Effect of SIP1 on RT activity at higher amounts of IN,"HIV-1 RT (GST-RTp66); 5 pmoles His-IN, SIP1 1 or 5 pmol (Figure S4B)",not evident; also recorded: could not observed when high amount of IN protein was present
same,Stimulation of RT activity by SIP1 with IN1–70,"HIV-1 RT (GST-RTp66); 3.5 fmoles IN1–70, 50 fmoles rSIP1, P = 0.98",no significant
same,Stimulation of RT activity by SIP1 in presence of full-length IN,"HIV-1 RT (GST-RTp66); 3.5 fmoles WT-IN, 50 fmoles rSIP1, P = 0.001",Significant stimulation of RT activity
same,Enhancement of IN-stimulated RT activity by SIP1,HIV-1 RT (GST-RTp66); WT-IN plus different amounts of rSIP1 (Figure 4C),further enhanced by SIP1 in a dose-dependent manner
same,Effect of pre-incubation order on stimulatory effect,"HIV-1 RT (GST-RTp66); pre-incubation of RT and IN before SIP1, on ice (Figure S4D)",most effective stimulatory effect
same,Stimulation of RT activity by SIP1 alone,"HIV-1 RT (GST-RTp66); without IN, P = 0.69",no significant
full-length His-tagged HIV-1 integrase Y15A (enzyme),stoichiometry N,[5],2
synthetic peptide IN60–80,"HIV-1 infectivity (luciferase activity) in PMA-stimulated THP-1 cells with 100 µM peptide, relative to control; the pair blocked is IN with SIP1",recombinant SIP1 (rSIP1) [6],20 % of control and 25 % of control
same,"IC50 of inhibition of the IN-SIP1 mediated RT activity in the in vitro reverse transcription assay (35 fmol RT, 3.5 fmol His-IN, 50 fmol rSIP1); the pair blocked is m2 with m15 (pmoles per reaction)",recombinant SIP1 (rSIP1) [7],10
synthetic peptide IN231–251,"IC50 of inhibition of the IN-SIP1 mediated RT activity in the in vitro reverse transcription assay (35 fmol RT, 3.5 fmol His-IN, 50 fmol rSIP1); the pair blocked is m2 with m15 (nmoles per reaction)",recombinant SIP1 (rSIP1) [7],1
"wild type HIV-1 integrase with V5 epitope (IN-V5, WT-V5) (enzyme)",tetramer formation relative to control siRNA treated cells (SIP1 knock-down cells),[8],50%
